Where two headings read alike, the source gives them in different places.
Experiments:
ERBB4 = target: T1, ERBB4 (Homo sapiens, UniProt Q15303); settings: 1 μM, duplicate, without preincubation; cited from earlier work
T1 construct: literature Ambit Biosciences

EPHA2 = EPHA2 (Homo sapiens, UniProt P29317); assay: Nanosyn kinase profiling, % inhibition; type: biochemical; settings: panel of 230 kinases
Method: (§1) “Inhibiting kinase activity” means to decrease the production of an phosphor-peptide by a particular kinase that can be separated by analytical techniques. For example, a comprehensive platform of kinase, protease, phosphatase and epigenetic assays that utilizes cutting-edge microfluidics and informatics tools to provide accurate and rapid results. Profiling data in this application were determined using these techniques at Nanosyn Inc. IC50 data were provided by Reaction Biology Inc using a P33 radiolabeled kinase assay.
(§2) A total of 15 new inhibitors were designed, prepared, and evaluated against a panel of 29 selected kinases in order to explore the applicability, SAR trends, and the tunability of this scaffold that could be imposed but this unique geometry, Table 21. Inhibitors I-1 to 1-12 all retained the 2-CF3-5-(4-F-phenyl) imidazole-4-carboxamide scaffold previously described (Deitrich, 2010), but explored different Hinge-Gatekeeper Motifs (HGM).
(§3) More modest activity for Aurora-A, FLT-1/4, KDR, KIT, PDGFRs was accompanied by better activity for B-Raf mutant and wild-type forms, Modest inhibition of MEK-1, BTK, c-Met, RET, and RON was also observed. […] Moreover, the observed inhibition of MEK-1 with 1-12 and TYK2 with I-6 represents additional activities against kinases for which no type-II inhibitors have been reported to date. […] To further evaluate the scope of inhibition, I-6 was evaluated against a larger panel of 230 kinases, Table-22.

DDR2 = target: T2, DDR2 (Homo sapiens, UniProt Q16832); assay: Nanosyn kinase profiling, % inhibition; type: biochemical; settings: panel of 230 kinases
T2 sequence (Q16832 22-855): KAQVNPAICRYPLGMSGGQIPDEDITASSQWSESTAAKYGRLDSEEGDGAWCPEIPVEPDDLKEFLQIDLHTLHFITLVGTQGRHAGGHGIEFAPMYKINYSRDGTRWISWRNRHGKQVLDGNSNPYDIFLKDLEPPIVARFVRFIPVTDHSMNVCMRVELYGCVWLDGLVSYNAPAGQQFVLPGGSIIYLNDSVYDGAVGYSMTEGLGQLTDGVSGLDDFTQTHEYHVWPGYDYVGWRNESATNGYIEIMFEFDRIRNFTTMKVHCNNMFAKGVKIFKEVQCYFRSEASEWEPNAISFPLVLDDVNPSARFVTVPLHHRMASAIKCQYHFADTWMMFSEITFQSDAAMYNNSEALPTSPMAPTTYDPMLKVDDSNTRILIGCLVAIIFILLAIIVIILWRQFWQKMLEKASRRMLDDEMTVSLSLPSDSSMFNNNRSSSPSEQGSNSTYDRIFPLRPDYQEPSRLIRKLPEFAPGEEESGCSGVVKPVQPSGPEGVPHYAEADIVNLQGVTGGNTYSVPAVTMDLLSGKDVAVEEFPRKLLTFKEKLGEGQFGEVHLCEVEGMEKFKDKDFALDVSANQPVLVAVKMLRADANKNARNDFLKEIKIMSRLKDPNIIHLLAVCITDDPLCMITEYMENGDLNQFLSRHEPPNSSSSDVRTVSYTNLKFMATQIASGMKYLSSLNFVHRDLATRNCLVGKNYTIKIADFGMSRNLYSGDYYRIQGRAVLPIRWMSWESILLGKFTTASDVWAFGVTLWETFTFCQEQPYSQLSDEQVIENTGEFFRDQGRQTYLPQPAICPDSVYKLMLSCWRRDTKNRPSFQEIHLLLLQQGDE
Method: as §1, §2, §3

TYK2 = TYK2 (Homo sapiens, UniProt P29597); assay: Nanosyn kinase profiling, % inhibition; type: biochemical; settings: panel of 230 kinases
Method: as §1, §2, §3

RON = RON (Homo sapiens, UniProt Q04912); assay: Nanosyn kinase profiling, % inhibition; type: biochemical; settings: panel of 230 kinases
Method: as §1, §2, §3

RET = RET (Homo sapiens, UniProt P07949); assay: Nanosyn kinase profiling, % inhibition; type: biochemical; settings: panel of 230 kinases
Method: as §1, §2, §3

CRAF = CRAF (Homo sapiens, UniProt P04049); assay: Nanosyn kinase profiling, % inhibition; type: biochemical; settings: panel of 230 kinases
Method: as §1, §2, §3

PDGFR-β [1] = target: T3, PDGFR-β (Homo sapiens, UniProt P09619); assay: Nanosyn kinase profiling, % inhibition; type: biochemical; settings: panel of 230 kinases
Method: as §1, §2, §3

FMS = FMS (Homo sapiens, UniProt P07333); assay: Nanosyn kinase profiling, % inhibition; type: biochemical; settings: panel of 230 kinases
Method: as §1, §2, §3

TIE2 = TIE2 (Homo sapiens, UniProt Q02763); assay: Nanosyn kinase profiling, % inhibition; type: biochemical; settings: panel of 230 kinases
Method: as §1, §2, §3

FLT1 = FLT1 (Homo sapiens, UniProt P17948); assay: Nanosyn kinase profiling, % inhibition; type: biochemical; settings: panel of 230 kinases
Method: as §1, §2, §3

KDR = KDR (Homo sapiens, UniProt P35968); assay: Nanosyn kinase profiling, % inhibition; type: biochemical; settings: panel of 230 kinases
Method: as §1, §2, §3

P38-α = P38-α (Homo sapiens, UniProt Q16539); assay: Nanosyn kinase profiling, % inhibition; type: biochemical; settings: panel of 230 kinases
Method: as §1, §2, §3

MET = MET (Homo sapiens, UniProt P08581); assay: Nanosyn kinase profiling, % inhibition; type: biochemical; settings: panel of 230 kinases
Method: as §1, §2, §3

FLT4 = FLT4 (Homo sapiens, UniProt P35916); assay: Nanosyn kinase profiling, % inhibition; type: biochemical; settings: panel of 230 kinases
Method: as §1, §2, §3

PI3K-γ = target: T4, PI3K-γ (Homo sapiens, UniProt P48736); assay: Reaction Biology P33 radiolabeled kinase assay, IC50 and time dependence; type: biochemical; settings: for IC50: ATP 10 uM, read-out: Compound IC50* PI3K-γ
T4 construct: purchased Reaction Biology Inc (contract assay)
Method: as §1
(§4) The observation of potency and isoform selectivity with time-dependency for PI3K-γ appears to be unprecedented in the literature. In addition, these activities combined with inhibition of p38-α, Raf-1, DDR and CSF-1R, would be complimentary and potentially synergistic activities for both the treatment of certain inflammation based conditions and cancers.

RAF1 = target: T5, RAF1 (Homo sapiens, UniProt P04049); assay: as above; type: biochemical; settings: for IC50: ATP 10 uM, read-out: Compound IC50* RAF1
T5 construct: literature Ambit Biosciences
Method: as §1, §4

PDGFR-β [2] = target: T3, PDGFR-β; assay: as above; type: biochemical; settings: for IC50: ATP 10 uM, read-out: Compound IC50* PDGFR-β
Method: as §1, §4

T4 sequence (P48736 whole entry): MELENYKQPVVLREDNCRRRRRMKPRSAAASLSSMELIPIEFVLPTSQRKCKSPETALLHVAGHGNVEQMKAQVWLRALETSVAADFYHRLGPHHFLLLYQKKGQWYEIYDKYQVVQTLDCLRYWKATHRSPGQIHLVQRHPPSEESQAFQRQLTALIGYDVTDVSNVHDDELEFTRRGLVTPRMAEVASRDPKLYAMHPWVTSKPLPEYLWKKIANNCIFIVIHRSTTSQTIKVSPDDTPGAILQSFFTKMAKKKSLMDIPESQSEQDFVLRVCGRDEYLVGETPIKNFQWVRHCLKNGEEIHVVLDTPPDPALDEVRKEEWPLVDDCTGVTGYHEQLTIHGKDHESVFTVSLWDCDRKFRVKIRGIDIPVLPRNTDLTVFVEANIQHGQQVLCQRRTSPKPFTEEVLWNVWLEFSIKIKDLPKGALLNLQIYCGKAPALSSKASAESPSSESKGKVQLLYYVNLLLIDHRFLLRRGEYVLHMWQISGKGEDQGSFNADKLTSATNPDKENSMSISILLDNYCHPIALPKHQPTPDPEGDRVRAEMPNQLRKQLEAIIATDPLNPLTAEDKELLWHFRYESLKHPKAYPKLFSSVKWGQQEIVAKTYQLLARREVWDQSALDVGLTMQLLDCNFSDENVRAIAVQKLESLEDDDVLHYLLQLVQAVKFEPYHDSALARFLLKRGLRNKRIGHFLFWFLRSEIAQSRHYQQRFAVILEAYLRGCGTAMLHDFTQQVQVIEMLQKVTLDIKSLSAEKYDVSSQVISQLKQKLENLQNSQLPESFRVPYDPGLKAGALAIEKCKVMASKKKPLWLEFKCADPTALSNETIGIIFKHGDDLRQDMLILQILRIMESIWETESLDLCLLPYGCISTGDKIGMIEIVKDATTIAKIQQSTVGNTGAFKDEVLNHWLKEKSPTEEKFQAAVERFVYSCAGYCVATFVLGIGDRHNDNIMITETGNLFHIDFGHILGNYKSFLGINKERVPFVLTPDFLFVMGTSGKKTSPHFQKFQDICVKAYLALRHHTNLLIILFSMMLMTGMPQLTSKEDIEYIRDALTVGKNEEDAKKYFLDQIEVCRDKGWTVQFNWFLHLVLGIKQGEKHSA
T5 sequence (P04049 whole entry): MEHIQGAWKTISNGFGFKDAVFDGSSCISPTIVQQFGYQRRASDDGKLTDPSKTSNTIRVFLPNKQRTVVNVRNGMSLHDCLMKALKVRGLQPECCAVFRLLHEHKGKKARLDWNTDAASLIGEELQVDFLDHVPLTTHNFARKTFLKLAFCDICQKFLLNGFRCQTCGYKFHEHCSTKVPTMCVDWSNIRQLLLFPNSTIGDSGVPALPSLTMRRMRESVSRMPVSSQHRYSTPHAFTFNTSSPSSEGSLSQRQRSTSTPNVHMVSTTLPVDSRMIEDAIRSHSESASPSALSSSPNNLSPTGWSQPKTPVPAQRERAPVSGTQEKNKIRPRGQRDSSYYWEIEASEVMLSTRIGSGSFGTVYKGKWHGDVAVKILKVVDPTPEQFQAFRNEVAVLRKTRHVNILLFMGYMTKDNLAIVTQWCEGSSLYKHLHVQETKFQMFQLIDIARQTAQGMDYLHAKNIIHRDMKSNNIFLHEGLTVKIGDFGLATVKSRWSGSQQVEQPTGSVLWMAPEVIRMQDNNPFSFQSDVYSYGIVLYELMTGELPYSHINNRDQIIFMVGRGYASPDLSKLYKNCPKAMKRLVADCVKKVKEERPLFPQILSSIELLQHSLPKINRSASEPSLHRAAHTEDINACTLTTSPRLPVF
T3 sequence (P09619 33-1106): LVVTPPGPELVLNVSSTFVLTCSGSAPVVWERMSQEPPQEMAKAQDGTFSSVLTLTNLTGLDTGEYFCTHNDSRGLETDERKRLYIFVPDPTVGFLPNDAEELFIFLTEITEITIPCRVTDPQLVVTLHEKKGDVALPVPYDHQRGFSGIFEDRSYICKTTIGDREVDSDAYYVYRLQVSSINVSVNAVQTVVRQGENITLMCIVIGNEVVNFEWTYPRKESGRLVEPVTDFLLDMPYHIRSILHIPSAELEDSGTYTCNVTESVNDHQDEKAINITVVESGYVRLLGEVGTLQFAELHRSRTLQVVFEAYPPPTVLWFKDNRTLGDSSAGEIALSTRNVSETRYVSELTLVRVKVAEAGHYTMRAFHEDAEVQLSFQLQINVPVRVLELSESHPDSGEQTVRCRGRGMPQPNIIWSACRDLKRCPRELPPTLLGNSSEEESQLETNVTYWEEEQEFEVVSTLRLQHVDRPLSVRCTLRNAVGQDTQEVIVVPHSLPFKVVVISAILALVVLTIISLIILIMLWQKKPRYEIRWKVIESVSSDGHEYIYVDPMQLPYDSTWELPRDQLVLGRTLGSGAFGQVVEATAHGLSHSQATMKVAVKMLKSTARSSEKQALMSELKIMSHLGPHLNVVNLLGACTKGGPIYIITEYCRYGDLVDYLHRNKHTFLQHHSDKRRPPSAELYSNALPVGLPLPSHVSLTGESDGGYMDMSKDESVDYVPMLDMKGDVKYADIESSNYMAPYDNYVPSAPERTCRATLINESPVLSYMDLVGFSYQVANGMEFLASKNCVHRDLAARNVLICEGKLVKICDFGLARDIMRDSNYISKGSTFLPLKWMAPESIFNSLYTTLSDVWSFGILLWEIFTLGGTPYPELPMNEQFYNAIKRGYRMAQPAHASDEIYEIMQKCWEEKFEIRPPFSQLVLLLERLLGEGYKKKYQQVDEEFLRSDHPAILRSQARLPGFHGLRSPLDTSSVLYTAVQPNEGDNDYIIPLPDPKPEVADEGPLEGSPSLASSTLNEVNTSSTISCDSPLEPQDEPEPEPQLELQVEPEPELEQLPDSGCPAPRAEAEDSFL
Chain of FMS (P07333 20-972): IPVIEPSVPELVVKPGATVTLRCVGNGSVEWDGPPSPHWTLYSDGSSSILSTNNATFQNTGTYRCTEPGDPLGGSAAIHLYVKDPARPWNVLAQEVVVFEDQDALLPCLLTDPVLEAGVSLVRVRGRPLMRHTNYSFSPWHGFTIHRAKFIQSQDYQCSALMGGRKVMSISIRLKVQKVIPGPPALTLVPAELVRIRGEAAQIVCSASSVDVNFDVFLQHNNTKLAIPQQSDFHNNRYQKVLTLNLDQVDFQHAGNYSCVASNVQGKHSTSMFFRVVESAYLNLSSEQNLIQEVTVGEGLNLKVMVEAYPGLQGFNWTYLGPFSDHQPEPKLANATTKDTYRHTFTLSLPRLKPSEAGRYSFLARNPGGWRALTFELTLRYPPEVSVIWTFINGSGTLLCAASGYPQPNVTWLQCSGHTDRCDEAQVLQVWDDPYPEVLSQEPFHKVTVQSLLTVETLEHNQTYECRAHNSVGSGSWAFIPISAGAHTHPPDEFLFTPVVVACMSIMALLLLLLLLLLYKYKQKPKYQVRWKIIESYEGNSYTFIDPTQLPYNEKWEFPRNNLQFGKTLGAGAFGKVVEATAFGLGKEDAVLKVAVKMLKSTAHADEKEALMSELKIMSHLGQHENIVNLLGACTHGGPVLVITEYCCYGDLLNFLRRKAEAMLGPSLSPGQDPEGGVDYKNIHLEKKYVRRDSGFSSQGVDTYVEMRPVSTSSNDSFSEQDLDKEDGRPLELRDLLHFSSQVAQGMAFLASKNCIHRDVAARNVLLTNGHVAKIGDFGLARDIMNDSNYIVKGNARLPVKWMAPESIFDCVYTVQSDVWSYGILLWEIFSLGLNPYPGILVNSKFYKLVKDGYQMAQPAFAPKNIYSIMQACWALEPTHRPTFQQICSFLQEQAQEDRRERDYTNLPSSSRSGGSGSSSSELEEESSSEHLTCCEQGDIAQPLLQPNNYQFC
Chain of TYK2 (P29597 whole entry): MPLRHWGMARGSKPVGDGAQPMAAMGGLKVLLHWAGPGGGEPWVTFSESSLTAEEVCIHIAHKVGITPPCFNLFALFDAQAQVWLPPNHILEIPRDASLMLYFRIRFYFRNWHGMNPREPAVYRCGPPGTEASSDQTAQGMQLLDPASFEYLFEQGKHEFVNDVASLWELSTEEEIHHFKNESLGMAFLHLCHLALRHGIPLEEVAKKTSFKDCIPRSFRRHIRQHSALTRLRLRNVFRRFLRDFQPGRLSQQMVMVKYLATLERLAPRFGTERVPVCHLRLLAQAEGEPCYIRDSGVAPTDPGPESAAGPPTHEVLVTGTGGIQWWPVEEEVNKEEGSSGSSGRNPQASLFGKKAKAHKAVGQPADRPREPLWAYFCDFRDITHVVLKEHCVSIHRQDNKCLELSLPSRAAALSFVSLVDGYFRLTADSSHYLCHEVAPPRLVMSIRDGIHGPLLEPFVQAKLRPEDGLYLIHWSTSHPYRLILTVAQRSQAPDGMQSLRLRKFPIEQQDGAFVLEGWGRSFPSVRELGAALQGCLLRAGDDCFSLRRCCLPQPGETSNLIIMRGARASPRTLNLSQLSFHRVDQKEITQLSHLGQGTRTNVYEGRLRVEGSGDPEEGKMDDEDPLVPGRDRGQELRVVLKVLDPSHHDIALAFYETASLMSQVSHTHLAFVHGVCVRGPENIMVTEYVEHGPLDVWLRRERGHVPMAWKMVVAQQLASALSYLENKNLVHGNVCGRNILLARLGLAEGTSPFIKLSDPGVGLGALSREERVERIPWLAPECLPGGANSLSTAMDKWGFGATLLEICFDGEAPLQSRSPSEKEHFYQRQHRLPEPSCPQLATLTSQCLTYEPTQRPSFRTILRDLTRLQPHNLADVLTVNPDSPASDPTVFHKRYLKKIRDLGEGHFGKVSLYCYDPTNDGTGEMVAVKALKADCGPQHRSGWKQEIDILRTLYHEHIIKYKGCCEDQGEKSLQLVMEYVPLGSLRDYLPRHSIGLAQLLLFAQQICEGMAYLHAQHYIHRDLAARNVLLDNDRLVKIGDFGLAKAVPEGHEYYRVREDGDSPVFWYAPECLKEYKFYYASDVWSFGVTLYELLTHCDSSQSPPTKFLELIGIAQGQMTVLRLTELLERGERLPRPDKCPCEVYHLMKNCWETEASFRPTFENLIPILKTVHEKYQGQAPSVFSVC

Cc1ccc(NC(=O)c2[nH]c(C(F)(F)F)nc2-c2ccc(F)cc2)cc1Nc1ccc2ncn(C)c(=O)c2c1 [KIN-035]
inhibition of ERBB4 (ERBB4): X (X > 25% @ 1 μM)

CNC(=O)c1cc(Oc2ccc(NC(=O)c3nc(C(F)(F)F)[nH]c3-c3ccc(F)cc3)cc2)ccn1 [Inhibitor I-6, 4-(4-{[5-(4-Fluoro-phenyl)-2-trifluoromethyl-3H-imidazole-4-carbonyl]-amino}-phenoxy)-pyridine-2-carboxylic acid methylamide]
inhibition at 5 µM (EPHA2): ≥ 50%
inhibition at 5 µM (DDR2): ≥ 50%
inhibition at 5 µM (TYK2): ≥ 50%
inhibition at 5 µM (RON): ≥ 50%
inhibition at 5 µM (RET): ≥ 50%
inhibition at 5 µM (CRAF): ≥ 50%
inhibition at 5 µM (PDGFR-β [1]): ≥ 50%
inhibition at 5 µM (FMS): ≥ 50%
inhibition at 5 µM (TIE2): ≥ 50%
inhibition at 5 µM (FLT1): ≥ 50%
inhibition at 5 µM (KDR): ≥ 50%
inhibition at 5 µM (P38-α): ≥ 50%
inhibition at 5 µM (MET): ≥ 50%
inhibition at 5 µM (FLT4): ≥ 50%

Cc1ccc(NC(=O)c2nc(S(C)(=O)=O)[nH]c2-c2ccc(F)cc2)cc1Nc1nccc(-c2cccnc2)n1 [Inhibitor I-14, 3-(4-(pyridin-3-yl)-pyrimidinyl-2-yl)amino-4-methyl-analine, 5-(4-Fluorophenyl)-2-(methylsulfonyl)-1H-imidazole-4-carboxamide]
Time Dependence Observed? PI3K-γ (PI3K-γ; 15 vs 60 Min preincubation): Yes
IC50 (PI3K-γ; preincubation 15 Min): 127 nM
IC50 (PI3K-γ; preincubation 60 Min): 57.8 nM
Time Dependence Observed? RAF1 (RAF1; 15 vs 60 Min preincubation): Yes
IC50 (RAF1; preincubation 15 Min): 96.5 nM
IC50 (RAF1; preincubation 60 Min): 81.3 nM
Time Dependence Observed? PDGFR-β (PDGFR-β [2]; 15 vs 60 Min preincubation): No
IC50 (PDGFR-β [2]; preincubation 15 Min): 2010 nM
IC50 (PDGFR-β [2]; preincubation 60 Min): 2510 nM
